Key:
[1] = test system: Klebsiella pneumoniae ATCC BAA-2814; test: Gene expression analysis by quantitative reverse transcription PCR; assay type: cell-based; settings: for ROB gene expression compared to untreated cells / soxS gene expression compared to untreated cells: Meropenem only 0.25 MIC (8 μg mL^−1)
Protocol: Cell treatment and RNA extraction: Overnight cultures of Klebsiella pneumoniae ATCC BAA-2814 grown on Brain Heart Infusion (BHI) agar was harvested and washed in phosphate buffer saline (pH=7.4) twice. Fresh Brain Heart infusion broth was inoculated with K. pneumoniae cells to a final concentration of 10^6 CFU mL^−1. Cells were subjected to the following treatments: T0—Vehicle only (ddH2O); T1—Meropenem only (0.25 MIC; 8 μg mL^−1); T2—Meropenem 0.25 MIC+SP-azaBIM 136 (2 ug mL^−1). Treated cells were incubated at 35° C. at 200 rpm and total RNA was extracted at 1 h and 6 h post exposure using TRIzol reagent (Life Technologies) following the manufacturer's protocol before eluting in DEPC treated water. Three biological replicates were included for each treatment.
Quantitative reverse transcription PCR analysis: Reverse transcription was done using the GoScript Reverse Transcriptase Kit (Promega, USA) employing a mixture (1:1) of random and oligo dT primers with 2 μg RNA as starting material in a 20-μL reaction following the manufacturers protocols. cDNA samples were then quantified by real-time PCR using specific primers in an Applied Biosystems 7500 Fast Real-Time PCR system (Life Technologies Corp., USA) and the data analysed using the 2^(−ΔΔct) method. Thermal cycling was performed using a two-step PCR amplification standard procedure at 95° C. for 30 s and 35 cycles of 95° C. for 5 s and 60° C. for 30 s. The expression levels of all the genes were normalized using the K. pneumoniae RNA polymerase sigma factor (rpoD) gene as an internal standard.
To examine this hypothesis, we investigated the expression of genes in K. pneumoniae ATCC […] that were affected by SP-azaBIM 136 treatment. Expression of key transcription factors and their associated downstream resistance and pathogenicity genes was examined in Klebsiella pneumoniae cells treated with meropenem and a combination of meropenem and SP-azaBIM 136. Cells in the exponential phase were either treated with 0.25 MIC (8 μg mL^−1) of Meropenem only or a combination of 0.25 MIC meropenem and 10 μg mL^−1 of SP-azaBIM 136. Untreated cells served as the control for baseline gene expression. Cells were exposed to each agent for 1 h and 6 h, after which the total RNA was extracted, and cDNA synthesis performed. […] The addition of SP-azaBIM 136 was theorized to revert the expression of the relevant genes closer to baseline expression levels.

[2] = test system: clinical isolate CR-K. pneumoniae 7225; test: Non-lethal mouse peritonitis infection model; assay type: in vivo, Swiss albino mice; settings: monotherapy at 10 mg kg^−1; preliminary dosing experiments
Protocol: For both lethal and non-lethal infection models involving Carbapenem resistant Klebsiella pneumoniae suitable strains, number of mice per treatment and bacterial infection dose were predetermined in preliminary experiments.
Each mouse (n=6 per group) received an intraperitoneal (i.p.) injection of 200 μl of bacterial suspension (1×10^4 CFU ml^−1).
Mice were then treated once daily for two subsequent days (i.e. 24 h and 48 h). Twenty-four-hours after the last dose, the mice were euthanized via cervical dislocation and their spleen and liver excised, homogenized in PBS and plated onto Hichrome™ Klebsiella selective media (HiMedia Laboratories, PA, USA). The plates were incubated at 35° C. for 24 h and bacterial counts were determined (CFU g^−1 organ).
Based on the significance of the SP-azaBIMs to restore the in vitro efficacy of antibiotics against high priority pathogenic bacteria, we examined if these compounds could provide proof of concept that they could be used to treat in vivo infections. To test this, we performed both non-lethal and lethal intraperitoneal infection models in Swiss Albino mice.
There was a significant reduction in the K. pneumoniae load in both the liver (FIG. 2a) and spleen (FIG. 2b) for the combination therapies compared to the respective antibiotic monotherapies. […] Colistin (Col) (10 mg kg^−1) was used as the positive control in this case. K. pneumoniae load in the liver (FIG. 2a) and spleen (FIG. 2b) was determined by selective plating on Hichrome™ Klebsiella selective media. Data bars represent the average (n=6 mice per treatment group)±standard error.

P. aeruginosa = test: Rescue concentration of substituted phenyl azaindole derivatives; assay type: cell-based; settings: Imipenem fixed at 1 μg/mL
Protocol: (§1) The antibiotic adjuvant activity of the SPazaBIMs were evaluated in combination with representative antibiotics (representing 13 antibiotic classes) against the 19 pathogens strains listed in Table 3. To assess the adjuvant properties of the SP-azaBIM molecules, a modified checkerboard minimum inhibitory concentration assay was used. A fixed concentration of the respective antibiotic (susceptible breakpoint concentration) was mixed with a twofold dilution series of the test SP-azaBIM (FIG. 1). This was to determine the concentration of SP-azaBIM needed potentiate the antibiotic at a clinically susceptible breakpoint concentration. Antibiotic susceptible breakpoint concentrations for the respective bacteria were determined using Clinical Laboratory Standards Institute (CLSI) criteria M100 ED31.
(§2) In this study, only those antibiotics to which the bacterial was classed as resistant were included in the adjuvant assays. In this assay we recorded the rescue concentration of the SP-BIM for a respective antibiotic. The rescue concentration was defined as the concentration of the adjuvant that reduces the minimum inhibitory concentration (MIC) of an antibiotic to the susceptibility breakpoint.
(§3) Immediately prior to testing, the respective antibiotic and SP-azaBIM was dissolved in sterile deionised water at 20× the required test concentration. Each microtiter well was then inoculated with 180 μl of bacterial inoculum of 10^6 CFU/ml in ca-MHB, and 10 μl each if the antibiotic and SP-azaBIM was added to the plates. These plates were then incubated at 35° C. for 24 h under aerobic conditions. A similar method was followed for the fastidious pathogens except that they were cultured in ca-MHB with 5% sheep blood and 5% CO2.
Bacterial growth was visually inspected after the incubation period and the rescue concentration of the test SP-azaBIM was determined as the lowest concentration of the compound needed to reduce bacterial growth by 99.99% at the susceptible breakpoint concentration of the antibiotic. […] If the bacteria can tolerate this concentration in vitro, then the bacteria has an intermediate or absolute resistance toward that antibiotic. […]
(§4) Phenyl azaindole compounds are also tested for their adjuvant activities and the method is shown in Example 39.

K. pneumoniae = test: as above; assay type: cell-based; settings: for Rescue concentration, K. pneumoniae Ciprofloxacin (1 μg/mL): Ciprofloxacin fixed at 1 μg/mL; for Rescue concentration, K. pneumoniae Imipenem (1 μg/mL): Imipenem fixed at 1 μg/mL
Protocol: as §1, §2, §3
(§5) Bacterial growth was visually inspected after the incubation period and the rescue concentration of the test SP-azaBIM was determined as the lowest concentration of the compound needed to reduce bacterial growth by 99.99% at the susceptible breakpoint concentration of the antibiotic. For example, CLSI states that Pseudomonas aeruginosa is susceptible to the Imipenem if the MIC is ≤2 μg mL^−1. If the bacteria can tolerate this concentration in vitro, then the bacteria has an intermediate or absolute resistance toward that antibiotic. The goal was to determine the concentration of SP-azaBIM needed to cause P. aeruginosa death at 2 μg mL^−1 of Imipenem therefore restoring susceptibility of the bacteria to toward the antibiotic.
as §4

[3] = test system: Carbapenem resistant Acinetobacter baumannii; test: Broth microdilution minimum inhibitory concentration; assay type: cell-based; settings: compound alone
Protocol: (§6) Antibacterial activity of the synthesized compounds was determined following guidelines established by the Clinical and Laboratory Standards Institute M07-A10 (CLSI 2015), following the broth microdilution method. Briefly, the test articles were dissolved in 100% DMSO, diluted by 2-fold serial titrations in the same vehicle (100% DMSO), for a total of 11 concentrations. A 4 μL aliquot of each dilution was then added to 196 μL of broth medium seeded with the bacterial suspension in wells of a 96 well plate (bacterial count: 2×10^5 to 8×10^5 colony forming units/mL final). The highest test substance concentration was 1028 μg/mL, and the final vehicle concentration was 2 percent. Following incubation, the test plate was visually examined, and each well was scored for growth or complete inhibition of growth. The minimum inhibitory concentration was determined as the lowest concentration were no growth of the bacterial was observed. Each test article was assayed in duplicate.

[4] = test system: Carbapenem resistant Klebsiella pneumoniae; test: as above; assay type: cell-based; settings: compound alone
Protocol: as §6

[5] = test system: Vancomycin resistant Enterococcus faecalis; test: as above; assay type: cell-based; settings: compound alone
Protocol: as §6

[6] = test system: Methicillin resistant Staphylococcus aureus; test: as above; assay type: cell-based; settings: compound alone
Protocol: as §6

[7] = test system: Multidrug resistant Pseudomonas aeruginosa; test: as above; assay type: cell-based; settings: compound alone
Protocol: as §6

MRSA = test: Rescue concentration of substituted phenyl azaindole derivatives; assay type: cell-based, Staphylococcus aureus; settings: Amoxicillin fixed at 2 μg/mL
Protocol: as §1, §2, §3, §5, §4

SMILES | mexA efflux pump gene expression above untreated cells (peak) ([1]; Meropenem only) | norB efflux pump gene expression above untreated cells (peak) ([1]; Meropenem only) | ROB gene expression compared to untreated cells ([1]; 1 h) | ROB gene expression compared to untreated cells ([1]; 6 h) | soxS gene expression compared to untreated cells ([1]; 6 h) | soxS gene expression compared to untreated cells ([1]; initial (1 h)) | Efficacy of antibiotic monotherapy against K. pneumoniae 7225 [2] | Rescue concentration, P. aeruginosa Imipenem (1 μg/mL) (P. aeruginosa) | Rescue concentration, K. pneumoniae Ciprofloxacin (1 μg/mL) (K. pneumoniae) | Rescue concentration, K. pneumoniae Imipenem (1 μg/mL) (K. pneumoniae) | MIC [3] | MIC [4] | MIC [5] | MIC [6] | MIC [7] | Rescue concentration, MRSA Amoxicillin (2 μg/mL) (MRSA)
C[C@@H](O)[C@H]1C(=O)N2C(C(=O)O)=C(S[C@@H]3CN[C@H](C(=O)N(C)C)C3)[C@H](C)[C@H]12 [Meropenem, reference compound] | 8.7 folds | 2.2 folds | approximately 3 folds | 12 folds | 18 folds | 3 folds | ineffective | – | – | – | – | – | – | – | – | –
O=[N+]([O-])c1ccccc1C(O)c1c[nH]c2ncccc12 (stereo not shown) [Compound 2NO2-7aza-OH, (2-nitrophenyl)(1H-pyrrolo[2,3-b]pyridin-3-yl)methanol] | – | – | – | – | – | – | – | <256 µg/mL | <256 µg/mL | <256 µg/mL | < 1020 µg/mL | < 1020 µg/mL | < 1020 µg/mL | < 1020 µg/mL | < 1020 µg/mL | 256 µg/mL
O=[N+]([O-])c1ccccc1C(O)c1c[nH]c2cnccc12 (stereo not shown) [Compound 2NO2-6aza-OH, (2-nitrophenyl)(1H-pyrrolo[2,3-c]pyridin-3-yl)methanol] | – | – | – | – | – | – | – | <256 µg/mL | 256 µg/mL | 128 µg/mL | < 1020 µg/mL | < 1020 µg/mL | < 1020 µg/mL | < 1020 µg/mL | < 1020 µg/mL | 256 µg/mL
OC(c1ccc(Br)cc1)c1c[nH]c2ncc(Cl)cc12 (stereo not shown) [4Br-5Cl-7aza-OH, (4-bromophenyl)(5-chloro-1H-pyrrolo[2,3-b]pyridin-3-yl)methanol] | – | – | – | – | – | – | – | 256 µg/mL | 32 µg/mL | 32 µg/mL | < 1020 µg/mL | < 1020 µg/mL | < 1020 µg/mL | < 1020 µg/mL | < 1020 µg/mL | 8 µg/mL

— US20230382926A1, “COMPOUNDS AND USES THEREOF” (The University of The West Indies, priority 2022, published 2023)
